The record followed here is PubChem BioAssay AID244 (DTP/NCI, 2004).

In the test the test system is CD2F1 mice, Lymphoma 8 ip, survival T/C. Description: NCI In Vivo Anticancer Drug Screen. Data for tumor model Lymphoma 8 (intraperitoneal) in CD2F1 (CDF1) mice. Particulars: higher = longer survival. As for the experimental part: The antitumor activity of compounds was measured in mice bearing transplantable tumors. Survival or tumor size were measured and the results are expressed as the measurement made in the treated group (T) divided by the measurement made in the vehicle treated control group (C). The tumor model used in this assay is Lymphoma 8 (intraperitoneal) in CD2F1 (CDF1) mice

Where [1] appears, read: endpoint: median survival time, dose: 50.0 mg/kg/injection, schedule: Q01DX009 (ip), vehicle: saline.

Molecules are shown by their SMILES. Values joined by “and” are separate entries in the source; they are usually repeats but may differ in a detail not shown here. Equal values may be shown once. Results filed as inconclusive are left out.

For the molecule `O=C1NC(O)CCN1C1OC(CO)C(O)C1O` (stereo not drawn), the T/C reads like this: (endpoint: median survival time, dose: 10.0 mg/kg/injection, schedule: Q01DX015 (ip), vehicle: saline) 102 % of control and 109 % of control; (endpoint: median survival time, dose: 10.0 mg/kg/injection, schedule: Q04DX008 (ip), vehicle: saline) 100 % of control and 101 % of control; (endpoint: median survival time, dose: 10.0 mg/kg/injection, schedule: Q## X015 (ip), vehicle: saline) 102 % of control and 109 % of control; (endpoint: median survival time, dose: 30.0 mg/kg/injection, schedule: Q01DX015 (ip), vehicle: saline) 102 % of control and 112 % of control; (endpoint: median survival time, dose: 30.0 mg/kg/injection, schedule: Q04DX008 (ip), vehicle: saline) 101 % of control (2×) and 103 % of control; (endpoint: median survival time, dose: 30.0 mg/kg/injection, schedule: Q## X015 (ip), vehicle: saline) 102 % of control and 112 % of control. Besides, the T/C is, setting by setting: (endpoint: median survival time, dose: 100.0 mg/kg/injection, schedule: Q01DX015 (ip), vehicle: saline) 102 % of control and 104 % of control; (endpoint: median survival time, dose: 100.0 mg/kg/injection, schedule: Q04DX008 (ip), vehicle: saline) 101 % of control (2×) and 103 % of control; (endpoint: median survival time, dose: 100.0 mg/kg/injection, schedule: Q## X015 (ip), vehicle: saline) 102 % of control and 104 % of control; (endpoint: median survival time, dose: 300.0 mg/kg/injection, schedule: Q01DX015 (ip), vehicle: saline) 99 % of control and 101 % of control; (endpoint: median survival time, dose: 300.0 mg/kg/injection, schedule: Q04DX008 (ip), vehicle: saline) 99 % of control and 102 % of control; (endpoint: median survival time, dose: 300.0 mg/kg/injection, schedule: Q## X015 (ip), vehicle: saline) 99 % of control and 101 % of control. Also, the T/C was 101 % of control (endpoint: median survival time, dose: 1000.0 mg/kg/injection, schedule: Q01DX015 (ip), vehicle: saline); 99 % of control and 105 % of control (endpoint: median survival time, dose: 1000.0 mg/kg/injection, schedule: Q04DX008 (ip), vehicle: saline); 101 % of control (endpoint: median survival time, dose: 1000.0 mg/kg/injection, schedule: Q## X015 (ip), vehicle: saline).
On to `O=CC(S)CO` (stereo not drawn), for which the T/C runs as follows: (endpoint: median survival time, dose: 25.0 mg/kg/injection, schedule: Q01DX010 (ip), vehicle: saline) 92 % of control; (endpoint: median survival time, dose: 50.0 mg/kg/injection, schedule: Q01DX010 (ip), vehicle: saline) 92 % of control; (endpoint: median survival time, dose: 100.0 mg/kg/injection, schedule: Q01DX010 (ip), vehicle: saline) 100 % of control.
As for `C[C@H]1C(=O)O[C@@H]2CCN3CC=C(COC(=O)[C@](C)(O)[C@@]1(C)O)[C@H]23`, the T/C reads like this: (endpoint: survival time, mean or median, dose: 3.13 mg/kg/injection, schedule: Q01DX010 (ip), vehicle: saline) 100 % of control; (endpoint: survival time, mean or median, dose: 6.25 mg/kg/injection, schedule: Q01DX010 (ip), vehicle: saline) 100 % of control; (endpoint: survival time, mean or median, dose: 12.5 mg/kg/injection, schedule: Q01DX010 (ip), vehicle: saline) 100 % of control; (endpoint: survival time, mean or median, dose: 25.0 mg/kg/injection, schedule: Q01DX010 (ip), vehicle: saline) 100 % of control.
For `NC(CC(=O)O)C(=O)O` (stereo not drawn), the T/C runs as follows: (endpoint: median survival time, dose: 100.0 mg/kg/injection, schedule: Q01DX005 (ip), vehicle: water) 95 % of control and 100 % of control; (endpoint: median survival time, dose: 200.0 mg/kg/injection, schedule: Q01DX005 (ip), vehicle: water) 100 % of control; (endpoint: median survival time, dose: 400.0 mg/kg/injection, schedule: Q01DX005 (ip), vehicle: water) 100 % of control; (endpoint: median survival time, dose: 800.0 mg/kg/injection, schedule: Q01DX005 (ip), vehicle: water) 91 % of control.
Take `O=C1C=C(C2OC(CO)C(O)C2O)C(=O)N1` (stereo not drawn): the T/C (endpoint: median survival time, dose: 2.0 mg/kg/injection, schedule: Q01DX010 (ip), vehicle: saline) was 92 % of control; the T/C (endpoint: median survival time, dose: 4.0 mg/kg/injection, schedule: Q01DX010 (ip), vehicle: saline) is 92 % of control; the T/C (endpoint: median survival time, dose: 8.0 mg/kg/injection, schedule: Q01DX005 (ip), vehicle: saline) was 75 % of control; the T/C (endpoint: median survival time, dose: 8.0 mg/kg/injection, schedule: Q01DX010 (ip), vehicle: saline) was 100 % of control; the T/C (endpoint: median survival time, dose: 16.0 mg/kg/injection, schedule: Q01DX005 (ip), vehicle: saline) is 43 % of control; the T/C (endpoint: median survival time, dose: 32.0 mg/kg/injection, schedule: Q01DX005 (ip), vehicle: saline) is 17 % of control.
Regarding `Nc1ncn(C2OC(CO)C(O)C2O)c(=O)n1` (stereo not drawn), the T/C was 116 % of control (endpoint: median survival time, dose: 0.75 mg/kg/injection, schedule: Q01DX005 (ip), vehicle: saline) and 158 % of control (endpoint: median survival time, dose: 3.0 mg/kg/injection, schedule: Q01DX005 (ip), vehicle: saline).
Take `NC(=O)CC(N)CO` (stereo not drawn): the T/C is, setting by setting: under setting [1], 87 % of control and 100 % of control; (endpoint: median survival time, dose: 100.0 mg/kg/injection, schedule: Q01DX009 (ip), vehicle: saline) 91 % of control and 100 % of control; (endpoint: median survival time, dose: 200.0 mg/kg/injection, schedule: Q01DX009 (ip), vehicle: saline) 97 % of control and 98 % of control; (endpoint: median survival time, dose: 400.0 mg/kg/injection, schedule: Q01DX009 (ip), vehicle: saline) 91 % of control and 102 % of control.
On to `COc1cccc2c1C(=O)c1c(O)c3c(c(O)c1C2=O)C[C@@](O)(C(C)=O)C[C@@H]3OC1CC(N)C(O)C(C)O1` (stereo partly drawn), for which the T/C is 96 % of control and 101 % of control (endpoint: median survival time, dose: 1.25 mg/kg/injection, schedule: Q01DX005 (ip), vehicle: saline); 100 % of control and 105 % of control (endpoint: median survival time, dose: 2.5 mg/kg/injection, schedule: Q01DX005 (ip), vehicle: saline); 123 % of control (endpoint: median survival time, dose: 5.0 mg/kg/injection, schedule: Q01DX005 (ip), vehicle: saline); 82 % of control (endpoint: median survival time, dose: 10.0 mg/kg/injection, schedule: Q01DX005 (ip), vehicle: saline).
As to `CC[C@H]1CN2CCc3cc(OC)c(OC)cc3[C@@H]2C[C@@H]1C[C@H]1NCCc2cc(OC)c(OC)cc21`, the T/C reads like this: (endpoint: median survival time, dose: 1.87 mg/kg/injection, schedule: Q04DX003 (ip), vehicle: saline) 107 % of control; (endpoint: median survival time, dose: 2.5 mg/kg/injection, schedule: Q04DX003 (ip), vehicle: saline) 103 % of control; (endpoint: median survival time, dose: 3.7 mg/kg/injection, schedule: Q04DX003 (ip), vehicle: water) 107 % of control; (endpoint: median survival time, dose: 3.75 mg/kg/injection, schedule: Q04DX003 (ip), vehicle: saline) 111 % of control; (endpoint: median survival time, dose: 5.0 mg/kg/injection, schedule: Q04DX003 (ip), vehicle: saline) 100 % of control; (endpoint: median survival time, dose: 7.5 mg/kg/injection, schedule: Q04DX003 (ip), vehicle: saline) 111 % of control. The T/C by setting is: (endpoint: median survival time, dose: 7.5 mg/kg/injection, schedule: Q04DX003 (ip), vehicle: water) 107 % of control; (endpoint: median survival time, dose: 10.0 mg/kg/injection, schedule: Q04DX003 (ip), vehicle: saline) 100 % of control; (endpoint: median survival time, dose: 15.0 mg/kg/injection, schedule: Q04DX003 (ip), vehicle: saline) 118 % of control; (endpoint: median survival time, dose: 15.0 mg/kg/injection, schedule: Q04DX003 (ip), vehicle: water) 107 % of control; (endpoint: median survival time, dose: 20.0 mg/kg/injection, schedule: Q04DX003 (ip), vehicle: saline) 103 % of control.
Consider `N=[N+]=CC(=O)OCC(N)C(=O)O` (stereo not drawn), for which the T/C (endpoint: median survival time, dose: 2.0 mg/kg/injection, schedule: Q14DX016 (ip), vehicle: saline) is 150 % of control.
Take `C[C@]12C=CC(=O)C=C1CC[C@@H]1[C@@H]2C(=O)C[C@@]2(C)[C@H]1CC[C@]2(O)C(=O)CO`: the T/C was 105 % of control and 107 % of control and 108 % of control (endpoint: median survival time, dose: 12.5 mg/kg/injection, schedule: Q01DX005 (sc), vehicle: steriod suspending solution); 96 % of control and 104 % of control and 108 % of control (endpoint: median survival time, dose: 25.0 mg/kg/injection, schedule: Q01DX005 (sc), vehicle: steriod suspending solution); 96 % of control and 99 % of control and 100 % of control (endpoint: median survival time, dose: 50.0 mg/kg/injection, schedule: Q01DX005 (sc), vehicle: steriod suspending solution); 100 % of control and 103 % of control and 104 % of control (endpoint: median survival time, dose: 100.0 mg/kg/injection, schedule: Q01DX005 (sc), vehicle: steriod suspending solution); 111 % of control and 112 % of control (endpoint: median survival time, dose: 200.0 mg/kg/injection, schedule: Q01DX005 (sc), vehicle: steriod suspending solution).
Regarding `NC(=O)OCC(N)C(=O)O` (stereo not drawn), the T/C reads like this: (endpoint: median survival time, dose: 50.0 mg/kg/injection, schedule: Q01DX005 (ip), vehicle: saline) 99 % of control and 100 % of control; (endpoint: median survival time, dose: 100.0 mg/kg/injection, schedule: Q01DX005 (ip), vehicle: saline) 100 % of control; (endpoint: median survival time, dose: 200.0 mg/kg/injection, schedule: Q01DX005 (ip), vehicle: saline) 88 % of control; (endpoint: median survival time, dose: 400.0 mg/kg/injection, schedule: Q01DX005 (ip), vehicle: saline) 92 % of control and 94 % of control.
Turning to `NC(C(=O)O)C(F)(F)C(=O)O` (stereo not drawn), the T/C was 93 % of control (endpoint: median survival time, dose: 3.12 mg/kg/injection, schedule: Q01DX009 (ip), vehicle: saline); 97 % of control (endpoint: median survival time, dose: 6.25 mg/kg/injection, schedule: Q01DX009 (ip), vehicle: saline); 87 % of control and 89 % of control (endpoint: median survival time, dose: 12.5 mg/kg/injection, schedule: Q01DX009 (ip), vehicle: saline); 100 % of control (endpoint: median survival time, dose: 25.0 mg/kg/injection, schedule: Q01DX009 (ip), vehicle: saline); 107 % of control under setting [1].
